Results as given in ChEMBL document CHEMBL1201862, “PubChem BioAssay data set” (2004).
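Exposure lasted 48 hours, with cells grown in 96-well plates and compounds tested at five concentrations. GI50 is the concentration that inhibits growth by half.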 Active and inactive are the calls of the source. Rule as the data show it: active = GI50 up to about 1.1 µM and inactive = higher.

Tests used:
Assay in all cases: NCI-60 cell line screen, 48 h
[1] = tested on: BT-549
[2] = tested on: EKVX
[3] = tested on: HT-29
[4] = tested on: Hs-578T
[5] = tested on: K562
[6] = tested on: M14
[7] = tested on: NCI-H23
[8] = tested on: PC-3
[9] = tested on: RXF 393
[10] = tested on: SF-268
[11] = tested on: SF-295
[12] = tested on: SNB-19
[13] = tested on: SR
[14] = tested on: TK-10
[15] = tested on: UACC-257
[16] = tested on: UACC-62
[17] = tested on: UO-31
[18] = tested on: LOX IMVI
[19] = tested on: SNB-75
[20] = tested on: Malme-3M

COc1ccc(OC)c(C23CCCC(C2)N(C)CC3)c1 (configuration not stated)
GI50 [1]: 30.8 µM (inactive)
GI50 [2]: 43.6 µM (inactive)
GI50 [3]: 14.9 µM (inactive)
GI50 [4]: 38.1 µM (inactive)
GI50 [5]: 17 µM (inactive)
GI50 [6]: 17.6 µM (inactive)
GI50 [7]: 32.1 µM (inactive)
GI50 [8]: 16.4 µM (inactive)
GI50 [9]: 29.9 µM (inactive)
GI50 [10]: 44.6 µM (inactive)
GI50 [11]: 38.5 µM (inactive)
GI50 [12]: 6.75 µM (inactive)
GI50 [13]: 18.4 µM (inactive)
GI50 [14]: 40.3 µM (inactive)
GI50 [15]: 36.6 µM (inactive)
GI50 [16]: 20.9 µM (inactive)
GI50 [17]: 28.6 µM (inactive)

O=c1c2cc(I)ccc2nc(S)n1Cc1ccccc1
GI50 [1]: 19.2 µM (inactive)
GI50 [2]: 5.52 µM (inactive)
GI50 [3]: 32.9 µM (inactive)
GI50 [4]: 16 µM (inactive)
GI50 [5]: 35.6 µM (inactive)
GI50 [18]: 37.8 µM (inactive)
GI50 [6]: 9.25 µM (inactive)
GI50 [7]: 7.59 µM (inactive)
GI50 [8]: 13.7 µM (inactive)
GI50 [9]: 16.6 µM (inactive)
GI50 [10]: 11 µM (inactive)
GI50 [11]: 9.02 µM (inactive)
GI50 [12]: 18.9 µM (inactive)
GI50 [19]: 20.6 µM (inactive)
GI50 [13]: 30.7 µM (inactive)
GI50 [14]: 16.8 µM (inactive)
GI50 [15]: 11.7 µM (inactive)
GI50 [16]: 19.6 µM (inactive)
GI50 [17]: 0.543 µM (active)

O=c1c2c3c(sc2nc2n1NC=NN2)CCCC3
GI50 [1]: 17.5 µM (inactive)
GI50 [2]: 13.3 µM (inactive)
GI50 [3]: 17.5 µM (inactive)
GI50 [4]: 21.8 µM (inactive)
GI50 [5]: 2.15 µM (inactive)
GI50 [18]: 2.49 µM (inactive)
GI50 [6]: 25.8 µM (inactive)
GI50 [20]: 21.4 µM (inactive)
GI50 [7]: 26.2 µM (inactive)
GI50 [8]: 24.2 µM (inactive)
GI50 [9]: 25.2 µM (inactive)
GI50 [10]: 17.5 µM (inactive)
GI50 [11]: 15.8 µM (inactive)
GI50 [12]: 42.7 µM (inactive)
GI50 [19]: 23.8 µM (inactive)
GI50 [14]: 24 µM (inactive)
GI50 [15]: 19.9 µM (inactive)
GI50 [16]: 17.6 µM (inactive)
GI50 [17]: > 44.7 µM (inactive)

O=C1CC(Br)c2c(Br)sc(Br)c21 (configuration not stated)
GI50 [1]: 19 µM (inactive)
GI50 [2]: 19.3 µM (inactive)
GI50 [3]: 16.7 µM (inactive)
GI50 [4]: 36.7 µM (inactive)
GI50 [5]: 7.73 µM (inactive)
GI50 [18]: 14.3 µM (inactive)
GI50 [6]: 15.8 µM (inactive)
GI50 [20]: 19.7 µM (inactive)
GI50 [7]: 16.7 µM (inactive)
GI50 [8]: 19.1 µM (inactive)
GI50 [9]: 18.3 µM (inactive)
GI50 [10]: 23.9 µM (inactive)
GI50 [11]: 27.7 µM (inactive)
GI50 [12]: 27.7 µM (inactive)
GI50 [19]: 23.1 µM (inactive)
GI50 [14]: 18.5 µM (inactive)
GI50 [15]: 15.7 µM (inactive)
GI50 [16]: 17.1 µM (inactive)
GI50 [17]: 16.4 µM (inactive)

C=CC(O)(CBr)CCC(Br)C(=C)C (configuration not stated)
GI50 [1]: > 10 µM (inactive)
GI50 [2]: > 10 µM (inactive)
GI50 [3]: > 10 µM (inactive)
GI50 [4]: > 10 µM (inactive)
GI50 [5]: > 10 µM (inactive)
GI50 [18]: > 10 µM (inactive)
GI50 [6]: > 10 µM (inactive)
GI50 [20]: > 10 µM (inactive)
GI50 [7]: > 10 µM (inactive)
GI50 [8]: > 10 µM (inactive)
GI50 [9]: > 10 µM (inactive)
GI50 [10]: > 10 µM (inactive)
GI50 [11]: > 10 µM (inactive)
GI50 [12]: > 10 µM (inactive)
GI50 [19]: > 10 µM (inactive)
GI50 [14]: > 10 µM (inactive)
GI50 [15]: > 10 µM (inactive)
GI50 [16]: > 10 µM (inactive)

COC(=O)c1ccc(/C=C2\Cc3ccccc3C2=O)cc1
GI50 [1]: > 100 µM (inactive)
GI50 [2]: > 100 µM (inactive)
GI50 [3]: > 100 µM (inactive)
GI50 [4]: > 100 µM (inactive)
GI50 [5]: > 100 µM (inactive)
GI50 [6]: > 100 µM (inactive)
GI50 [7]: > 100 µM (inactive)
GI50 [8]: > 100 µM (inactive)
GI50 [9]: > 100 µM (inactive)
GI50 [10]: > 100 µM (inactive)
GI50 [11]: > 100 µM (inactive)
GI50 [12]: > 100 µM (inactive)
GI50 [19]: > 100 µM (inactive)
GI50 [13]: > 100 µM (inactive)
GI50 [14]: > 100 µM (inactive)
GI50 [15]: > 100 µM (inactive)
GI50 [16]: > 100 µM (inactive)
GI50 [17]: > 100 µM (inactive)

NS(=O)(=O)c1ccc(CNC(=S)NC(=O)Nc2ccc(Cl)c(Cl)c2)cc1
GI50 [1]: 16.9 µM (inactive)
GI50 [3]: 23.2 µM (inactive)
GI50 [4]: 17.1 µM (inactive)
GI50 [5]: 16.1 µM (inactive)
GI50 [18]: 13.7 µM (inactive)
GI50 [6]: 19 µM (inactive)
GI50 [20]: 26.2 µM (inactive)
GI50 [7]: 14.8 µM (inactive)
GI50 [8]: 8.57 µM (inactive)
GI50 [9]: 27.9 µM (inactive)
GI50 [10]: 21.7 µM (inactive)
GI50 [11]: 16.3 µM (inactive)
GI50 [12]: 19.8 µM (inactive)
GI50 [19]: 17.5 µM (inactive)
GI50 [14]: 39.5 µM (inactive)
GI50 [15]: 32.8 µM (inactive)
GI50 [16]: 15.1 µM (inactive)
GI50 [17]: 16.9 µM (inactive)

O=c1[nH]c(NCc2ccncc2)nc2[nH]cnc12
GI50 [1]: > 100 µM (inactive)
GI50 [2]: > 100 µM (inactive)
GI50 [3]: > 100 µM (inactive)
GI50 [4]: > 100 µM (inactive)
GI50 [5]: > 100 µM (inactive)
GI50 [18]: > 100 µM (inactive)
GI50 [6]: > 100 µM (inactive)
GI50 [20]: > 100 µM (inactive)
GI50 [7]: > 100 µM (inactive)
GI50 [8]: > 100 µM (inactive)
GI50 [9]: > 100 µM (inactive)
GI50 [10]: > 100 µM (inactive)
GI50 [11]: > 100 µM (inactive)
GI50 [12]: > 100 µM (inactive)
GI50 [19]: > 100 µM (inactive)
GI50 [14]: > 100 µM (inactive)
GI50 [15]: > 100 µM (inactive)
GI50 [16]: > 100 µM (inactive)
GI50 [17]: > 100 µM (inactive)

N#CC(c1ccccc1)N(CCOCCOCCN(C(=O)c1ccccc1)C(C#N)c1ccccc1)C(=O)c1ccccc1 (configuration not stated)
GI50 [1]: > 100 µM (inactive)
GI50 [2]: > 100 µM (inactive)
GI50 [3]: > 100 µM (inactive)
GI50 [4]: > 100 µM (inactive)
GI50 [5]: 56.6 µM (inactive)
GI50 [18]: 91.2 µM (inactive)
GI50 [6]: > 100 µM (inactive)
GI50 [20]: 93.5 µM (inactive)
GI50 [7]: 84.7 µM (inactive)
GI50 [8]: 37.5 µM (inactive)
GI50 [9]: > 100 µM (inactive)
GI50 [10]: > 100 µM (inactive)
GI50 [11]: > 100 µM (inactive)
GI50 [12]: > 100 µM (inactive)
GI50 [19]: > 100 µM (inactive)
GI50 [14]: 78.2 µM (inactive)
GI50 [15]: 47.1 µM (inactive)
GI50 [16]: 53.6 µM (inactive)
GI50 [17]: 37.1 µM (inactive)

O=c1c(C(c2cccc(C(c3c(O)oc4ccccc4c3=O)c3c(O)oc4ccccc4c3=O)c2)c2c(O)oc3ccccc3c2=O)c(O)oc2ccccc12
GI50 [1]: 27.9 µM (inactive)
GI50 [2]: 67.3 µM (inactive)
GI50 [3]: 36.9 µM (inactive)
GI50 [4]: 25.5 µM (inactive)
GI50 [5]: 27.9 µM (inactive)
GI50 [18]: 18.7 µM (inactive)
GI50 [6]: > 100 µM (inactive)
GI50 [7]: 22.8 µM (inactive)
GI50 [8]: 37.9 µM (inactive)
GI50 [9]: > 100 µM (inactive)
GI50 [10]: 28.4 µM (inactive)
GI50 [11]: 41.5 µM (inactive)
GI50 [19]: 3.73 µM (inactive)
GI50 [13]: 28.4 µM (inactive)
GI50 [14]: > 100 µM (inactive)
GI50 [15]: 69 µM (inactive)
GI50 [16]: 29 µM (inactive)

NC(=O)C1=C(c2ccccc2)c2ccccc2C1=O
GI50 [1]: 16.9 µM (inactive)
GI50 [2]: 18.8 µM (inactive)
GI50 [3]: 16.6 µM (inactive)
GI50 [4]: 24.8 µM (inactive)
GI50 [5]: 38.1 µM (inactive)
GI50 [18]: 7.98 µM (inactive)
GI50 [6]: 19.1 µM (inactive)
GI50 [7]: 18.1 µM (inactive)
GI50 [8]: 17.8 µM (inactive)
GI50 [9]: 19.7 µM (inactive)
GI50 [10]: 17.8 µM (inactive)
GI50 [11]: 23 µM (inactive)
GI50 [12]: 17.7 µM (inactive)
GI50 [19]: 19.7 µM (inactive)
GI50 [13]: 4.78 µM (inactive)
GI50 [14]: 18.1 µM (inactive)
GI50 [15]: 13.6 µM (inactive)
GI50 [16]: 17.4 µM (inactive)
GI50 [17]: 18.8 µM (inactive)
